Assay results taken from patent US7932284B2, “Indole sulfonamide modulators of progesterone receptors” (Eli Lilly and Company, priority 2006, dated 2011).

Columns and labels:
[1] = test system: uterine endometrial transformation; assay: McPhail Assay; assay type: in vivo, New Zealand White Rabbits; conditions: rabbits; for McPhail Index** @ 10 mpk (Antagonist Mode): in combination with progesterone on days 7-12, antagonist mode; for McPhail Index** @ 30 mpk (Agonist Mode): compound alone on days 7-12, agonist mode
Protocol: The effects of progesterone receptor modulators on uterine endometrial transformation are evaluated in New Zealand White Rabbits (Harlan, 800-900 g) using the McPhail assay adapted from McPhail, MK. J Physiol, 1934:145-156. To evaluate antagonistic effects of compounds, the rabbits are treated sc with cyclodextrin-encapsulated 17-β-estradiol (Sigma, 10.52 ug/kg/day in 1 ml of saline) on days 1-6. The rabbits are then treated sc with progesterone (Sigma, 1.0 mg/kd/day in 1 ml of corn oil) in combination with compound of the present invention (in 15% Povidone K12, 10% Pluronic F68 (poloxamer 188) in deionized water (DIW): probe sonicated to mean<2 micron, 3 ml dose volume) on days 7-12. To evaluate agonist effects of compound, the rabbits are treated with either a compound of interest or progesterone alone on days 7-12. On day 13 the animals are sacrificed, uteri removed and fixed in zinc formalin (Richard-Allan Scientific). The fixed uteri are sectioned into 2-3 mm transverse slices and stained with haematoxylin and eosin. A total of six slices (a proximal, medial and distal section from each uterine horn) are evaluated histologically and the progestational effect is scored using the McPhail index. The McPhail test can be used to identify SPRMs.

[2] = test system: uterine C3 expression (complement 3 mRNA; PR antagonist potential); assay: C3 Rat Uterine Assay; assay type: in vivo, Sprague Dawley female rats; conditions: immature female rats, oral gavage, with R5020 0.1 mg/kg sc and ethynyl estradiol 50 ug/kg, 3 doses at 24 hour intervals
Protocol: Addition of a potential PR antagonist can then neutralize the blocking effect of the PR agonist, resulting in a measurable increase in uterine C3 expression.
Immature Sprague Dawley female rats (21 days old, each approximately 50 g in weight) are first administered the R5020 progestin subcutaneously in sesame oil vehicle at 0.1 mg/kg. The rats are then treated with ethynyl estradiol at a dose of 50 ug/kg plus a compound of interest at doses ranging from 1-30 mg/kg made up in 20% β-hydroxycyclodextran in water for an oral gavage volume of 0.3 ml. This dosing is done 3 times at 24 hour intervals. The control groups include rats treated with one of the following (administered and dosed as described above): 1) estrogen (E2) vehicle+R5020 vehicle, 2) E2+R5020 vehicle, 3) E2+R5020, and 4) E2+R5020+asoprisnil (comparator compound, 5 mg/kg). The rats are sacrificed by decapitation 2 hours after the final dose (50 hours total dosing time). Uteri are removed and cleaned of adipose tissue, and ½ (1 uterine horn) is flash-frozen in liquid nitrogen. The tissue is homogenized in TRIzol reagent using lysing matrix beads.
The RNA is isolated by chloroform extraction of the homogenized tissue, followed by isopropanol precipitation of the aqueous layer. The RNA is further purified by binding to a silica-gel based membrane or magnetic bead with a nucleic acid binding surface, and then eluted off with water. The RNA is converted to single strand cDNA via reverse transcriptase. These cDNA templates are analyzed by quantitative real-time PCR which multiplexes the C3 primer/probe set to an endogenous control gene. The resulting C3 data is normalized to the internal control. (Adapted from Lundeen, S. G. et al. J. Steroid Biochemistry and Molecular Biology, 2001, 78, 137-143.) Table 9 below provides data for representative compounds prepared according to the present invention.

[3] = target: T1, human progesterone receptor (PR) (Homo sapiens, UniProt P06401); assay: PR CTF assay (co-transfected HEK293 cells, GRE-luciferase reporter); assay type: cell-based; conditions: antagonist mode, with 0.05-0.08 nM R5020, 24 h
T1 construct: expressed in transfected cells; host or cells: HEK293
T1 sequence (P06401 1-933): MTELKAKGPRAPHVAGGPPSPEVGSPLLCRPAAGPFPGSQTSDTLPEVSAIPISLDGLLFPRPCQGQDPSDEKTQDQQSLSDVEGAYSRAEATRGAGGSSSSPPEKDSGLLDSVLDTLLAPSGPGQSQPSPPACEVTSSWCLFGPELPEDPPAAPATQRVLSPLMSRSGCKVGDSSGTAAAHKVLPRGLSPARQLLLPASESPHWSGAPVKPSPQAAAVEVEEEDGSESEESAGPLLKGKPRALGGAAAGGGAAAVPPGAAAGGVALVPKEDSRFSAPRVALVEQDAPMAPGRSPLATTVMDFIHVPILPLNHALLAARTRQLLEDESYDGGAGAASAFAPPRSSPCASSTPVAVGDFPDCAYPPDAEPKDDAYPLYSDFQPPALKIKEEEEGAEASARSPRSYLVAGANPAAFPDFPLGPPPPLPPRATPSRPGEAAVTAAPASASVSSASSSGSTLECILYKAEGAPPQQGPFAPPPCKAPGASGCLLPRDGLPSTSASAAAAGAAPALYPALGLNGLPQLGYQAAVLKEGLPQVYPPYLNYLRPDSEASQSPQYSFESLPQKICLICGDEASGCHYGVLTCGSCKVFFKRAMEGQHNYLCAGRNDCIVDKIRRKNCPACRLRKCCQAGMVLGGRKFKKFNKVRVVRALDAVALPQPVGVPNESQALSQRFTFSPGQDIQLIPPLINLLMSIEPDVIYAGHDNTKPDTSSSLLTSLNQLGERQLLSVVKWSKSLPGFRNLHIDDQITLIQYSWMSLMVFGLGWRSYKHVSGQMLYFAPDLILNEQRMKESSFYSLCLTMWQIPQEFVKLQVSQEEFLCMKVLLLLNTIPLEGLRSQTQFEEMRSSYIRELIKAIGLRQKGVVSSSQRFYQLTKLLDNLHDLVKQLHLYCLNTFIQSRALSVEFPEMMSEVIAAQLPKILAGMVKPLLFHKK
Protocol: Human embryonic kidney HEK293 cells are co-transfected using Fugene. Briefly, the reporter plasmid pGL3 containing two copies of GRE (glucocorticoid response element ^5'[NT]3) and TK promoter upstream of the luciferase reporter cDNA is transfected with a plasmid constitutively expressing human progesterone receptor (PR), using viral CMV promoter. Cells are transfected in T225 cm^2 flasks in DMEM media with 5% charcoal-stripped Fetal Bovine Serum (FBS). After an overnight incubation, transfected cells are trypsinized, plated in 96 well dishes in DMEM media containing 5% charcoal-stripped FBS, incubated for 4 h and then exposed to various concentrations of test compounds in 1:4 dilution increments. In the antagonist assays low concentrations of agonist (0.05-0.08 nM of R5020) is also added to the media. After 24 h of incubation with compounds, cells are lysed and luciferase activity is determined. Data is fit to a 4 parameter-fit logistics curve to determine EC50 and IC50 values. The % efficacy is determined versus maximum stimulation obtained with 30 nM R5020. In the antagonist mode the % inhibition is determined verses the effects of 30 nM R5020 alone.

Row | melting point [°C] | IC50 [3] [nM] | Structure (SMILES) | McPhail Index** @ 10 mpk (Antagonist Mode) [1] | McPhail Index** @ 30 mpk (Agonist Mode) [1] | ED50 [2] [mg/kg]
1 | – | – | CCCCn1cc(-c2ccc(C#N)c(F)c2)c2ccc(NS(C)(=O)=O)cc21 [Example 53, N-[1-Butyl-3-(4-cyano-3-fluoro-phenyl)-1H-indol-6-yl]-methanesulfonamide] | +++ (+++ ≧3) | ++ (++ 2-3) | > 10
2 | 189 to 191 | – | CC(C)n1cc(-c2cc(C#N)nn2C)c2ccc(NS(C)(=O)=O)cc21 [Example 121, N-[3-(5-Cyano-2-methyl-2H-pyrazol-3-yl)-1-isopropyl-1H-indol-6-yl]-methanesulfonamide] | – | – | –
3 | – | – | CC(C)n1cc(-c2ccc([N+](=O)[O-])cc2)c2ccc(NS(C)(=O)=O)cc21 [Example 197, N-[1-Isopropyl-3-(4-nitro-phenyl)-1H-indol-6-yl]-methanesulfonamide] | ++ (++ 2-3) | + (+ <2) | < 5
4 | – | ~11.7 | CC(C)n1cc(-c2ccc(C#N)nc2)c2ccc(NS(C)(=O)=O)cc21 [Example 48, N-[3-(6-Cyano-pyridin-3-yl)-1-isopropyl-1H-indol-6-yl]-methanesulfonamide] | + (+ <2) | + (+ <2) | < 5
5 | 144 to 145 | – | CCn1nc(C#N)cc1-c1cn(C(C)C)c2cc(NS(C)(=O)=O)ccc12 [Example 124, N-[3-(5-Cyano-2-ethyl-2H-pyrazol-3-yl)-1-isopropyl-1H-indol-6-yl]-methanesulfonamide] | – | – | –
6 | – | – | CC(C)n1cc(-c2cc(F)c(C#N)c(F)c2)c2ccc(NS(C)(=O)=O)cc21 [Example 170, N-[3-(4-Cyano-3,5-difluoro-phenyl)-1-isopropyl-1H-indol-6-yl]-methanesulfonamide] | +++ (+++ ≧3) | +++ (+++ ≧3) | < 5
7 | – | – | Cc1cc(-c2cn(C(C)C)c3cc(NS(C)(=O)=O)ccc23)ccc1C#N [Ex 49, N-[3-(4-Cyano-3-methyl-phenyl)-1-isopropyl-1H-indol-6-yl]-methanesulfonamide] | – | – | < 5
8 | – | – | CC(C)n1cc(-c2ccc(C#N)c(Cl)c2)c2ccc(NS(C)(=O)=O)cc21 [Example 50, N-[3-(4-Cyano-3-chloro-phenyl)-1-isopropyl-1H-indol-6-yl]-methanesulfonamide] | + (+ <2) | + (+ <2) | < 5
